Experimental data from patent publication US8952024B2, “Herbicidal pyrimidone derivatives” (E I du Pont de Nemours and Company, priority 2009, dated 2015).

Experiments:
Assay in all cases: Test D pre-/postemergence plant response
Assay type in all cases: in vivo
[1] = tested on: purslane (common purslane, Portulaca oleracea)
Summary of the method: (§1)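 Pre + post applications; loam/sand soil; solvent + surfactant vehicle; post-em plants 1- to 4-leaf (2–18 cm); greenhouse 14–21 d; visual score 0 (none) to 100 (full control) vs untreated.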

[2] = tested on: signalgrass (broadleaf signalgrass, Brachiaria platyphylla)
Summary of the method: as §1

[3] = tested on: sandbur (southern sandbur, Cenchrus echinatus)
Summary of the method: as §1

[4] = tested on: bluegrass (annual bluegrass, Poa annua)
Summary of the method: as §1

[5] = tested on: quackgrass (Elytrigia repens)
Summary of the method: as §1

[6] = tested on: Italian ryegrass (Lolium multiflorum)
Summary of the method: as §1

[7] = tested on: chickweed (common chickweed, Stellaria media); conditions: Postemergence
Summary of the method: as §1

[8] = tested on: spanishneedles (Bidens bipinnata)
Summary of the method: as §1

[9] = tested on: nutsedge (purple nutsedge, Cyperus rotundus)
Summary of the method: as §1

[10] = tested on: Russian thistle (Salsola kali)
Summary of the method: as §1

[11] = tested on: black mustard (Brassica nigra)
Summary of the method: as §1

[12] = tested on: prickly sida (Sida spinosa)
Summary of the method: as §1

[13] = tested on: ragweed (common ragweed, Ambrosia elatior)
Summary of the method: as §1

[14] = tested on: field bindweed (Convolvulus arvensis)
Summary of the method: as §1

[15] = tested on: large crabgrass (Digitaria sanguinalis)
Summary of the method: as §1

[16] = tested on: morningglory (pitted morningglory, Ipomoea lacunosa)
Summary of the method: as §1

[17] = Postemergence, 16 g ai/ha, scale 0 to 100
[18] = Postemergence, 31 g ai/ha, scale 0 to 100
[19] = Postemergence, 125 g ai/ha, scale 0 to 100 (0 no effect, 100 complete control)
[20] = Postemergence, 62 g ai/ha, scale 0 to 100 (0 no effect, 100 complete control)
[21] = Preemergence, 16 g ai/ha, scale 0 to 100, 0 no effect, 100 complete control
[22] = Preemergence, 31 g ai/ha, scale 0 to 100 (0 no effect, 100 complete control)
[23] = Preemergence, 62 g ai/ha, scale 0 to 100
[24] = Preemergence, 125 g ai/ha, scale 0 to 100
[25] = Preemergence, rate not given, scale 0 to 100, 0 no effect, 100 complete control
[26] = Postemergence, 31 g ai/ha, scale 0 to 100 (0 no effect, 100 complete control)

O=C1CCCC(O)=C1C(=O)c1cnc(-c2ccccc2)n(C2CCCCC2)c1=O [Compound 128, 3-cyclohexyl-5-[(2-hydroxy-6-oxo-1-cyclohexen-1-yl)carbonyl]-2-phenyl-4(3H)-pyrimidinone]
Plant response rating, Purslane [1, 17]: 30 | Plant response rating, Purslane [1, 18]: 30 | Plant response rating, Purslane [1, 19]: 50 | Plant response rating, Purslane [1, 20]: 30 | Plant response rating, Purslane [1, 21]: 0 | Plant response rating, Purslane [1, 22]: 0 | Plant response rating, Purslane [1, 23]: 100 | Plant response rating, Purslane [1, 24]: 100 | Plant response rating, Signalgrass [2, 17]: 0 | Plant response rating, Signalgrass [2, 18]: 30 | Plant response rating, Signalgrass [2, 19]: 35 | Plant response rating, Signalgrass [2, 20]: 35 | Plant response rating, Signalgrass [2, 21]: 0 | Plant response rating, Signalgrass [2, 22]: 0 | Plant response rating, Signalgrass [2, 24]: 5 | Plant response rating, Sandbur [3, 17]: 5 | Plant response rating, Sandbur [3, 18]: 5 | Plant response rating, Sandbur [3, 19]: 35 | Plant response rating, Sandbur [3, 20]: 5 | Plant response rating, Sandbur [3, 21]: 0 | Plant response rating, Sandbur [3, 22]: 0 | Plant response rating, Sandbur [3, 24]: 20 | Plant response rating, Sandbur [3, 25]: 20 | Plant response rating, Bluegrass [4, 17]: 0 | Plant response rating, Bluegrass [4, 26]: 0 | Plant response rating, Bluegrass [4, 19]: 0 | Plant response rating, Bluegrass [4, 20]: 0 | Plant response rating, Bluegrass [4, 21]: 0 | Plant response rating, Bluegrass [4, 22]: 0 | Plant response rating, Bluegrass [4, 23]: 25 | Plant response rating, Bluegrass [4, 24]: 25 | Plant response rating, Quackgrass [5, 17]: 0 | Plant response rating, Quackgrass [5, 18]: 0 | Plant response rating, Quackgrass [5, 19]: 5 | Plant response rating, Quackgrass [5, 20]: 0 | Plant response rating, Quackgrass [5, 21]: 0 | Plant response rating, Quackgrass [5, 22]: 0 | Plant response rating, Quackgrass [5, 24]: 0 | Plant response rating, Ryegrass, Italian [6, 17]: 0 | Plant response rating, Ryegrass, Italian [6, 18]: 0 | Plant response rating, Ryegrass, Italian [6, 19]: 5 | Plant response rating, Ryegrass, Italian [6, 20]: 0 | Plant response rating, Ryegrass, Italian [6, 21]: 0 | Plant response rating, Ryegrass, Italian [6, 22]: 0 | Plant response rating, Ryegrass, Italian [6, 24]: 0 | Plant response rating, Ryegrass, Italian [6, 25]: 0 | Plant response rating, Chickweed ([7]; 16 g ai/ha, scale 0 to 100): 60 | Plant response rating, Chickweed ([7]; 125 g ai/ha, scale 0 to 100 (0 no effect, 100 complete control)): 70 | Plant response rating, Chickweed ([7]; 62 g ai/ha, scale 0 to 100 (0 no effect, 100 complete control)): 65 | Plant response rating, Spanishneedles [8, 17]: 35 | Plant response rating, Spanishneedles [8, 18]: 50 | Plant response rating, Spanishneedles [8, 19]: 65 | Plant response rating, Spanishneedles [8, 20]: 50 | Plant response rating, Spanishneedles [8, 21]: 0 | Plant response rating, Spanishneedles [8, 22]: 0 | Plant response rating, Spanishneedles [8, 24]: 100 | Plant response rating, Spanishneedles [8, 25]: 90 | Plant response rating, Nutsedge, Purple [9, 17]: 0 | Plant response rating, Nutsedge, Purple [9, 18]: 10 | Plant response rating, Nutsedge, Purple [9, 19]: 50 | Plant response rating, Nutsedge, Purple [9, 20]: 35 | Plant response rating, Nutsedge, Purple [9, 21]: 0 | Plant response rating, Nutsedge, Purple [9, 22]: 0 | Plant response rating, Nutsedge, Purple [9, 23]: 0 | Plant response rating, Nutsedge, Purple [9, 24]: 70 | Plant response rating, Russian Thistle [10, 17]: 0 | Plant response rating, Russian Thistle [10, 18]: 0 | Plant response rating, Russian Thistle [10, 20]: 20 | Plant response rating, Russian Thistle [10, 22]: 0 | Plant response rating, Russian Thistle [10, 24]: 100 | Plant response rating, Black Mustard [11, 17]: 95 | Plant response rating, Black Mustard [11, 26]: 95 | Plant response rating, Black Mustard [11, 19]: 95 | Plant response rating, Black Mustard [11, 20]: 95 | Plant response rating, Black Mustard [11, 21]: 60 | Plant response rating, Black Mustard [11, 22]: 60 | Plant response rating, Black Mustard [11, 23]: 85 | Plant response rating, Black Mustard [11, 24]: 95 | Plant response rating, Prickly Sida [12, 17]: 50 | Plant response rating, Prickly Sida [12, 18]: 60 | Plant response rating, Prickly Sida [12, 19]: 80 | Plant response rating, Prickly Sida [12, 20]: 65 | Plant response rating, Prickly Sida [12, 21]: 0 | Plant response rating, Prickly Sida [12, 22]: 0 | Plant response rating, Prickly Sida [12, 23]: 25 | Plant response rating, Prickly Sida [12, 24]: 30 | Plant response rating, Ragweed [13, 18]: 75 | Plant response rating, Ragweed [13, 19]: 90 | Plant response rating, Ragweed [13, 20]: 90 | Plant response rating, Ragweed [13, 21]: 0 | Plant response rating, Ragweed [13, 22]: 75 | Plant response rating, Ragweed [13, 24]: 100 | Plant response rating, Field Bindweed [14, 17]: 50 | Plant response rating, Field Bindweed [14, 18]: 50 | Plant response rating, Field Bindweed [14, 19]: 65 | Plant response rating, Field Bindweed [14, 20]: 65 | Plant response rating, Field Bindweed [14, 21]: 0 | Plant response rating, Field Bindweed [14, 22]: 0 | Plant response rating, Field Bindweed [14, 23]: 35 | Plant response rating, Field Bindweed [14, 24]: 98 | Plant response rating, Crabgrass, Large [15, 17]: 40 | Plant response rating, Crabgrass, Large [15, 18]: 50 | Plant response rating, Crabgrass, Large [15, 19]: 70 | Plant response rating, Crabgrass, Large [15, 20]: 60 | Plant response rating, Crabgrass, Large [15, 21]: 0 | Plant response rating, Crabgrass, Large [15, 22]: 25 | Plant response rating, Crabgrass, Large [15, 23]: 60 | Plant response rating, Morningglory [16, 17]: 65 | Plant response rating, Morningglory [16, 18]: 65 | Plant response rating, Morningglory [16, 19]: 70 | Plant response rating, Morningglory [16, 20]: 70 | Plant response rating, Morningglory [16, 22]: 0 | Plant response rating, Morningglory [16, 23]: 0 | Plant response rating, Morningglory [16, 24]: 90
